In patent US12085575B2, “Compositions and methods for detecting proteinopathies” (BOARD OF SUPERVISORS OF LOUISIANA STATE UNIVERSITY AND …, priority 2011, dated 2024):

Assays:
[1] = tested on: polyubiquitylated proteins; assay: Camptothecin-induced degradation of polyubiquitylated proteins in A-T cells; type: cell-based, human; details: CPT 10 μm with Bafl 1 nm, 24 hr
Method: To test the generality of this observation, the anticancer drug camptothecin (CPT), a genotoxic agent (37, 48-50), which is known to sensitize A-T cells (37), like UV, was used to induce degradation of polyubiquitylated proteins in A-T cells. In FIG. 8E, A-T cells were treated with camptothecin (CPT; 10 μm) in the presence or absence of Bafl (1 nm) for 24 hr. Ubiquitin conjugated proteins using anti-ubiquitin antibodies were detected as described herein for FIG. 8A. The experiment was repeated three times.

[2] = tested on: LC3 and p62; assay: UV-induced degradation of autophagy substrates LC3 and p62 (Western blot); type: cell-based, human
Method: Immunoblotting and immunofluorescence analysis: Immunoblotting analysis of proteins in cultured cells: Cells ([…]) were cultured in 35 mm tissue culture plates. After various experimental treatments, cells were lysed using an SDS-PAGE sample buffer. Cell lysates were then analyzed by SDS-PAGE (10% for p62 or 15% for LC3 and polyubiquitin conjugates) and immunoblotting analysis using either anti-ISG15 (raised against human ISG15 (23)), anti-ubiquitin (Sigma-Aldrich), anti-HA (gift from Dr. Walworth at Robert Wood Johnson Medical School/University of Medicine and Dentistry of New Jersey; Piscataway, NJ)), anti-LC3 (MBL International Corporation; Woburn, MA), or p62 (Sigma-Aldrich) antibodies, as indicated, using the ECL Western procedure (Pierce) and the BioRad VersaDoc Imaging System.
Because degradation of proteasome substrates is deregulated in A-T cells, the degradation of the autophagy substrates (autophagic flux) LC3 and p62 was assessed in UV-exposed A-T and ATM+ cells (55). For FIGS. 10A-10D, A-T and ATM+ cells were treated with Bafl (1 nM for 18 h) and then exposed to UV as indicated (25 mJ/m2). Three hours after recovery in the presence of inhibitors, cells were lysed. Cell lysates were analyzed by Western blotting for LC3 (FIG. 10A), p62 […], and actin (lower panels in FIGS. 10A and 10C) using their specific antibodies. Intensity of the total LC3 (LC3-I+II) and p62 proteins was quantitated using BioRad Quantity One software, and the results shown in FIGS. 10B and 10D, respectively. […] show average values (±SEM) of % degradation of LC3 and p62 from three independent experiments. All control values (−UV and +Bafl) are normalized to 100%, and values for experimental treatments were expressed as percent variations over control
UV induces aberrant degradation of autophagy substrate LC3 in A-T cells and brain slices. In FIG. 19A, LC3 degradation in UV-treated A-T cells is shown. […] Intensities of the total LC3 bands were quantitated using BioRad Quantity One software.

[3] = tested on: autophagosomes and autophagolysosomes; assay: Cyt-ID and LysoTracker Red staining of autophagosomes, lysosomes and autophagolysosomes; type: cell-based, human; details: for fusion between autophagosomes and lysosomes: Bafl 1 nM 18 h; for mean # of green dots/cell (autophagosomes) / mean # of yellow dots/cell (autophagolysosomes): A-T/control shRNA cells, bafilomycin treated
Method: Autophagasome, lysosome and autophagolysosomes staining. Cells (100,000/point) were cultured on fibronectin-coated glass coverslips. Cells were treated with autophagy inhibitor Bafl (1 nM) (Sigma-Aldrich) for 18 hr. Cells were then exposed to UV radiation and allowed to recover in the presence of inhibitors for 3 h. Cells were then washed (2×1 min) with PBS and co-stained with Cyt-ID® (Cyt-ID® Autophagy Detection Kit from Enzo Lifesciences; Farmingdale, NY) and Lyso Tracker® Red DND-99 (Invitrogen) for 30 min at 37° C. in a CO2 incubator following manufacturer's protocol. Stained cells were then washed (2×1 min) with PBS and fixed with 4% paraformaldehyde for 20 min at room temperature. After washing with PBS (3×10 min), cells were mounted on slides in anti-fade mounting medium with DAPI (Invitrogen). Images were taken using a 63× oil immersion objective with a Leica DMRA2 upright microscope run through SlideBook software (Intelligent Imaging Innovations).
Autophagic flux was also monitored using Cyto-ID® and LysoTrack Red dyes. A-T and ATM+ cells were treated with Bafl (1 nM for 18 h) and then exposed to UV (25 mJ/m2) as indicated. Three hours after recovery in the presence of inhibitors, cells were co-stained with Cyt-ID® and LysoTracker Red® dyes. Fluorescence images of Cyt-ID® and LysoTracker Red® stained cells were made (Color images not shown). Green (autophagosomes; from Cyt-TD®-stained panels), red (lysosomes; from LysoTracker Red-stained panels), and yellow (autophagolysosomes; from merged panels) dots in A-T and ATM+ cells were counted manually using the ImageJ plug-in Cell Counter. Mean number of dots/cell is shown in FIGS. 11A and 11B, respectively. In FIGS. 11A and 11B, the number of autophagosomes (green dots) is represented by stippled bars; the number of lysosomes (red dots) is presented by lined bar; and the number of autophagolysosomes (yellow dots) is represented by clear (white) bars.
Bafilomycin inhibits autophagy at a late stage (47). Whether 3-methyl adenine (3-MA), an autophagy inhibitor known to inhibit autophagy at early stage by inhibiting formation of autophagosomes (56), could block UV-induced autophagic flux was tested in A-T/LV-control shRNA cells. Using Cyto-ID® and LysoTrack Red dyes as described herein in FIGS. 9A, 9B, 11A and 11B, the same criteria were used to judge autophagic activity in immunofluorescence analysis as described for FIGS. 11A and 11B.
The effect of 3-MA on UV-induced autophagic flux was tested in A-T/LV-ISG15 shRNA cells. A-T/LV-ISG15 shRNA cells were either left untreated or treated with 3-MA (10 nM for 18 h), and cells were then exposed to UV (25 mJ/m2). Three hours after recovery in the presence of the inhibitor, cells were co-stained with Cyt-ID® and LysoTracker Red® dyes. Fluorescence images of Cyt-ID® and LysoTracker Red® stained cells were made.

[4] = tested on: LC3; assay: UV-induced LC3 degradation in organotypic cerebellar brain slices; type: cell-based, mice
Method: In FIG. 19B, LC3 degradation in UV-treated A-T brain slices is shown. The same tissue lysates prepared from A-T and ATM+/− brains used in FIG. 17A were analyzed for LC3 and actin proteins. Intensity of the total LC3 and corresponding actin bands was quantitated using BioRad Quantity One software. The percent changes in LC3 amounts were calculated as a ratio between band intensities of LC3 (I and II) and actin (bar chart). In FIGS. 19A and 19B, the bar graphs have the following legends: bars 1: No drug and +Bafl controls; bars 2: +UV; and bars 3: +Bafl+UV.

## CO/C1=C\C(C)=C\[C@@H](C)[C@@H](O)[C@@H](C)C/C(C)=C/C=C/[C@H](OC)[C@@H]([C@@H](C)[C@@H](O)[C@H](C)[C@@]2(O)C[C@@H](O)[C@H](C)[C@@H](C(C)C)O2)OC1=O [Bafilomycin A1]
[1]
  CPT-mediated degradation of polyubiquitylated proteins: failed to protect
[2]; A-T cells, Bafl 1 nM 18 h, UV 25 mJ/m2
  UV-mediated degradation of LC3 and p62: failed to protect
[2]; ATM+ cells treated with UV in the absence or presence of Bafl
  LC3 and p62 levels: no apparent changes
[2]; ATM+ cells, Bafilomycin A1 1 nM 18 h, UV 25 mJ
  UV-induced autophagic flux (LC3 degradation): protected
[3]; A-T cells
  fusion between autophagosomes and lysosomes: failed to do so
[3]; with UV
  mean # of green dots/cell (autophagosomes): 0.8 dots/cell
  mean # of yellow dots/cell (autophagolysosomes): 1.5 dots/cell
[3]; without UV
  mean # of green dots/cell (autophagosomes): 6 dots/cell
  mean # of yellow dots/cell (autophagolysosomes): 5.8 dots/cell
[3]; ATM+ cells
  fusion between autophagosomes and lysosomes: blocked fusion
[4]; A-T cerebellar brain slices
  aberrant autophagic flux (degradation) of autophagy substrates under genotoxic stress: resistant
[4]; ATM+/− cerebellar slices
  UV-induced autophagic flux (LC3 degradation): protected
